In brackets after ≈: the same amount, converted by molar mass.
What was measured:
L1210 = experiment: In vitro cytotoxic activity against murine leukemia L1210 cells.; assay type: functional, cell-based; settings: Mus musculus
LoVo [1] = experiment: In vitro cytotoxic activity against human colon adenocarcinoma resistant to doxorubicin (LoVo Dx) cells; assay type: functional, cell-based
LoVo [2] = experiment: In vitro cytotoxic activity against human colon adenocarcinoma (LoVo) cells; assay type: functional, cell-based
[3] = Resistance index was determined by ratio of cytotoxicities of human colon adenocarcinoma (LoVo) cells to human colon adenocarcinoma resistant to doxorubicin (LoVo Dx) cells.; assay type: functional
[4] = In vitro cytotoxic activity against sarcoma resistant to doxorubicin S-180 Dx cells.; assay type: functional, cell-based; settings: Mus musculus
[5] = In vitro cytotoxic activity against sarcoma S-180 cells.; assay type: functional, cell-based; settings: Mus musculus
LoVo [6] = experiment: In vitro cytotoxic activity against human colon adenocarcinoma resistant to doxorubicin (LoVo Dx) cells.; assay type: functional, cell-based
LoVo [7] = experiment: In vitro cytotoxic activity against human colon adenocarcinoma (LoVo) cells.; assay type: functional, cell-based

Row | SMILES | IC50 (L1210) | IC50 (LoVo [1]) | IC50 (LoVo [2]) | Resistance index [3] | IC50 [4] | IC50 [5] | IC50 (LoVo [6]) | IC50 (LoVo [7])
1 | Cc1ccc2c3c(nn2CCN(C)C)-c2ccccc2Sc13 | 0.07 µg/mL (≈ 0.226 µM) | 1.7 µg/mL (≈ 5.49 µM) | 0.7 µg/mL (≈ 2.26 µM) | 2.4 |  |  |  | 
2 | Cc1ccc2nn(CCN(C)C)c3c2c1Sc1cnccc1-3 | 0.25 µg/mL (≈ 0.805 µM) |  |  |  | 0.4 µg/mL (≈ 1.29 µM) | 0.35 µg/mL (≈ 1.13 µM) |  | 
3 | Cc1ccc2c3c(nn2CCN(C)C)-c2cccnc2Sc13 | 0.08 µg/mL (≈ 0.258 µM) |  |  | 1.1 | 0.62 µg/mL (≈ 2 µM) | 0.46 µg/mL (≈ 1.48 µM) | 3.3 µg/mL (≈ 10.6 µM) | 3.1 µg/mL (≈ 9.99 µM)
4 | Cc1ccc2c3c(nn2CCN(C)C)-c2ccncc2Sc13 | 0.045 µg/mL (≈ 0.145 µM) |  |  | 1 | 0.7 µg/mL (≈ 2.25 µM) | 0.08 µg/mL (≈ 0.258 µM) | 2.3 µg/mL (≈ 7.41 µM) | 2.3 µg/mL (≈ 7.41 µM)
5 | Cc1ccc2nn(CCN(C)C)c3c2c1Sc1ncccc1-3 | 0.26 µg/mL (≈ 0.838 µM) |  |  |  | 0.33 µg/mL (≈ 1.06 µM) | 0.3 µg/mL (≈ 0.966 µM) |  | 
6 | Cc1ccc2c3c(nn2CCN(C)C)-c2cnccc2Sc13 | 0.0006 µg/mL (≈ 0.00193 µM) |  |  | 4.5 | 0.009 µg/mL (≈ 0.029 µM) | 0.003 µg/mL (≈ 0.00966 µM) | 0.018 µg/mL (≈ 0.058 µM) | 0.004 µg/mL (≈ 0.0129 µM)
7 | Cc1ccc2nn(CCN(C)C)c3c2c1Sc1ccccc1-3 | 0.25 µg/mL (≈ 0.808 µM) |  |  |  | 0.75 µg/mL (≈ 2.42 µM) | 0.5 µg/mL (≈ 1.62 µM) |  | 
8 | COc1cccc2c1C(=O)c1c(O)c3c(c(O)c1C2=O)C[C@@](O)(C(=O)CO)C[C@@H]3O[C@H]1C[C@H](N)[C@H](O)[C@H](C)O1 [DOXORUBICIN] |  |  | 0.52 µg/mL (≈ 0.957 µM) | 97 |  |  |  | 
9 | O=C1c2c(O)ccc(O)c2C(=O)c2c(NCCNCCO)ccc(NCCNCCO)c21 [MITOXANTRONE] |  |  | 0.023 µg/mL (≈ 0.0517 µM) | 27 |  |  | 0.62 µg/mL (≈ 1.39 µM) | 
